Assay results: patent EP0322748B1, “Antibiotic NK86-0279, process for production of the same and application of the same” (NIPPON KAYAKU KABUSHIKI KAISHA, priority 1987, dated 1989)
Converted amounts (≈) assume the structure as drawn.

How the values were obtained:
HeLa S₃ cells = assay: growth-inhibitory effect on HeLa S3 culture cells, dye exclusion method; type: cell-based; details: Homo sapiens, 72 h, three days after the addition
Protocol: The growth-inhibitory effect of the compound of the present invention on HeLa S₃ culture cells was examined. A 96-well plate was inoculated with HeLa S₃ cells at a ratio of 1.5 x 10³ cells/well and incubated in an incubator at 37°C under 5% CO2 for 24 hours. One day after the inoculation, the compound of the present invention was added to the culture medium at various concentrations. Three days after the addition, cells in each well were counted by the dye exclusion method to thereby evaluate the growth-inhibitory effect of the compound of the present invention at various concentrations on HeLa S₃ cells.

[1] = test system: human colonic cancer cells (SWlll6); assay: growth-inhibitory effect on human colonic cancer cells, dye exclusion method; type: cell-based
Protocol: (§1) The growth-inhibitory effects of the compound of the present invention on mouse colonic cancer cells (Colon 26) and human colonic cancer cells (SWlll6) were examined. A 96-well plate was inoculated with mouse colonic cancer cells at a ratio of 1.5 x 10³ cells per well, while another 96-well plate was inoculated with human colonic cancer cells at a ratio of 3.0 x 10³ per well. These cells were incubated in an incubator at 37°C under 5 % CO₂ for 24 hours. Then the compound of the present invention was added thereto at various concentrations. Cells in each well were counted by the dye exclusion method 65 hours and 96 hours after the addition to thereby evaluate the growth-inhibitory effect of the test compound on the mouse colonic cancer cells and that on the human colonic cancer cells.

[2] = test system: mouse melanoma cells (B16); assay: growth-inhibitory effect on mouse melanoma cells, dye exclusion method; type: cell-based
Protocol: as §1, with “melanoma” for “colonic cancer”, “(B16)” for “(Colon 26)”, “(A375)” for “(SWlll6)”, “1.0” for “3.0”, “CO₂.” for “CO₂ for 24 hours.”, “hours” for “hours and 96 hours”

[3] = test system: human melanoma cells (A375); assay: growth-inhibitory effect on human melanoma cells, dye exclusion method; type: cell-based
Protocol: as §1, with “melanoma” for “colonic cancer”, “(B16)” for “(Colon 26)”, “(A375)” for “(SWlll6)”, “1.0” for “3.0”, “CO₂.” for “CO₂ for 24 hours.”, “hours” for “hours and 96 hours”

[4] = test system: mouse malignant melanoma (B16 melanotic melanoma); assay: in-vivo test by intraperitoneal administration against mouse malignant melanoma, tumor volume; set-up: species or system BDF₁ mouse; details: 11 days after inoculation
Description: The anti-cancer action of the compound of the present invention against mouse malignant melanoma (B16 melanotic melanoma) was examined. 4 x 10⁵ mouse malignant melanoma cells were inoculated into a subcutaneous portion of the right body side of a 8 week-old male BDF₁ mouse, and the compound of the present invention was intraperitoneally administered to the mouse in various concentrations every day from the next day of the inoculation once a day for 10 days. On the 11 days after the inoculation the minor axis and the major axis of the tumor were measured, and the volume of the tumor was determined by using the following equation: (minor axis)² x […] [formula] . Then, the percentage inhibition of proliferation of each tumor with respect to the compound of the present invention was determined from the ratio of the volume of the tumor on the groups of administration of the compound of the present invention relative to that on the control group.

[5] = test system: two-spotted spider mite acarids (a Kelthane-resistant species); assay: insecticidal action, mortality rate of spider mites; type: in vivo; details: Tetranychus urticae, 48 h, Imagos of two-spotted spider mite, after 2 days
Protocol: The insecticidal action of the compound of the present invention was examined by the following method. • (1) An imago of two-spotted spider mite acarids (a Kelthane-resistant species) was used as a test vermin, and the mortality rate thereof was assayed according to an ordinary method (described on page 327 of "Noyaku Seibutsu Kenteiho" edited by Toyoji Hosotsuji). Specifically, a solution of the compound of the present invention in acetone (0.1 %) was added to 0.5 ml of an aqueous sucrose solution (1 %) to have a predetermined concentration. Ten two-spotted spider mite acarids were released in a vessel (200-ml beaker), and the vessel was covered with a paraffin film. The agent solution prepared above was put on the paraffin film, and another praffin film was put thereon. The beaker was allowed to stand in a thermostatic chamber (20 ± 1°C) for a predetermined period of time, and the life and death of the test vermin was investigated. • (2) A larva of mosquito culices (a sensitive species) was used as a test vermin, and the mortality rate thereof was assayed according to an ordinary method (described on page 109 of "Noyaku Jikkenho I, Sacchuzaihen" published by Soft Science, Inc.). Specifically, 10 ml of well water was placed in a vessel (15-ml Schale), and 5 larvae of mosquito culices (the third stage) were released in the vessel. A solution of the compound of the present invention in acetone (0.1 %) was added thereto so as to have a predetermined concentration. The vessel was allowed to stand in a thermostatic chamber (26 ± 1°C) for a predetermined period of time, and the life and death of the test vermin was investigated.

acute toxicity = details: mouse, in vivo, ip; mice

Q: With `CCC1C=CC=CCC(C)C(O)C(C)(O)C(=O)C(C)C(O)C(C)C(=O)C(C)C(O)C(C)C=CC(=O)OC2C(C)C(CC1)OC1(OC(CC(C)O)C(C)CC1=O)C2CC` (stereo not shown) [NK86-0279] as the compound, how does the IC50 (HeLa S₃ cells; HeLa S₃ cells, read-out: IC₅₀) read?
A: 0.0027 µg/mL (≈ 0.0033 µM)

Q: What about the inhibition at 0.00064 µg/mL (HeLa S₃ cells; HeLa, 0.00064 µg/ml, read-out: Growth-inhibitory ratio) of the same compound?
A: 22.9%

Q: And the inhibition at 0.0032 µg/mL (HeLa S₃ cells; HeLa, 0.0032 µg/ml, read-out: Growth-inhibitory ratio)?
A: 53.5%

Q: And the inhibition at 0.016 µg/mL (HeLa S₃ cells; HeLa, 0.016 µg/ml, read-out: Growth-inhibitory ratio)?
A: 61.2%

Q: And the inhibition at 0.08 µg/mL (HeLa S₃ cells; HeLa, 0.08 µg/ml, read-out: Growth-inhibitory ratio)?
A: 73.5%

Q: What about the inhibition at 0.4 µg/mL (HeLa S₃ cells; HeLa, 0.4 µg/ml, read-out: Growth-inhibitory ratio) of the same compound?
A: 81.2%

Q: And the inhibition at 0.0061 µg/mL ([1]; Homo sapiens, SW 1116, SWlll6, 0.0061 µg/ml, read-out: Growth-inhibitory ratio)?
A: 33.3%

Q: What about the inhibition at 0.024 µg/mL ([1]; Homo sapiens, SW 1116, SWlll6, 0.024 µg/ml, read-out: Growth-inhibitory ratio) of the same compound?
A: 51.7%

Q: And the inhibition at 0.098 µg/mL ([1]; Homo sapiens, SW 1116, SWlll6, 0.098 µg/ml, read-out: Growth-inhibitory ratio)?
A: 54.6%

Q: What about the inhibition at 0.39 µg/mL ([1]; Homo sapiens, SW 1116, SWlll6, 0.39 µg/ml, read-out: Growth-inhibitory ratio) of the same compound?
A: 53.5%

Q: What about the inhibition at 1.56 µg/mL ([1]; Homo sapiens, SW 1116, SWlll6, 1.56 µg/ml, read-out: Growth-inhibitory ratio) of the same compound?
A: 52.2%

Q: What about the inhibition at 6.25 µg/mL ([1]; Homo sapiens, SW 1116, SWlll6, 6.25 µg/ml, read-out: Growth-inhibitory ratio) of the same compound?
A: 80.8%

Q: What about the inhibition at 25 µg/mL ([1]; Homo sapiens, SW 1116, SWlll6, 25 µg/ml, read-out: Growth-inhibitory ratio) of the same compound?
A: 91.9%

Q: And the inhibition at 100 µg/mL ([1]; Homo sapiens, SW 1116, SWlll6, 100 µg/ml, read-out: Growth-inhibitory ratio)?
A: 90.7%

Q: What about the IC50 ([1]; human colonic cancer cells (SWlll6), read-out: IC₅₀) of the same compound?
A: 0.021 µg/mL (≈ 0.0256 µM)

Q: And the inhibition at 0.0061 µg/mL ([2]; Mus musculus, 65 h, B16, 0.0061 µg/ml, read-out: Growth-inhibitory ratio)?
A: 5.3%

Q: And the inhibition at 0.024 µg/mL ([2]; Mus musculus, 65 h, B16, 0.024 µg/ml, read-out: Growth-inhibitory ratio)?
A: 36.8%

Q: And the inhibition at 0.098 µg/mL ([2]; Mus musculus, 65 h, B16, 0.098 µg/ml, read-out: Growth-inhibitory ratio)?
A: 43.1%

Q: And the inhibition at 0.39 µg/mL ([2]; Mus musculus, 65 h, B16, 0.39 µg/ml, read-out: Growth-inhibitory ratio)?
A: 45.3%

Q: What about the inhibition at 1.56 µg/mL ([2]; Mus musculus, 65 h, B16, 1.56 µg/ml, read-out: Growth-inhibitory ratio) of the same compound?
A: 48.9%

Q: And the inhibition at 6.25 µg/mL ([2]; Mus musculus, 65 h, B16, 6.25 µg/ml, read-out: Growth-inhibitory ratio)?
A: 89.7%

Q: What about the inhibition at 25 µg/mL ([2]; Mus musculus, 65 h, B16, 25 µg/ml, read-out: Growth-inhibitory ratio) of the same compound?
A: 105%

Q: And the inhibition at 100 µg/mL ([2]; Mus musculus, 65 h, B16, 100 µg/ml, read-out: Growth-inhibitory ratio)?
A: 105%

Q: What about the IC50 ([2]; mouse melanoma cells (B16), 65 hours after the addition, read-out: IC₅₀) of the same compound?
A: 1.62 µg/mL (≈ 1.98 µM)

Q: And the IC50 ([3]; A-375, human melanoma cells (A375), 65 hours after the addition, read-out: IC₅₀)?
A: 1.87 µg/mL (≈ 2.28 µM)

Q: And the inhibition at 0.0061 µg/mL ([3]; Homo sapiens, A-375, 65 h, A375, 0.0061 µg/ml, read-out: Growth-inhibitory ratio)?
A: 19.7%

Q: And the inhibition at 0.024 µg/mL ([3]; Homo sapiens, A-375, 65 h, A375, 0.024 µg/ml, read-out: Growth-inhibitory ratio)?
A: 39.7%

Q: And the inhibition at 0.098 µg/mL ([3]; Homo sapiens, A-375, 65 h, A375, 0.098 µg/ml, read-out: Growth-inhibitory ratio)?
A: 49.4%

Q: And the inhibition at 0.39 µg/mL ([3]; Homo sapiens, A-375, 65 h, A375, 0.39 µg/ml, read-out: Growth-inhibitory ratio)?
A: 43.7%

Q: What about the inhibition at 1.56 µg/mL ([3]; Homo sapiens, A-375, 65 h, A375, 1.56 µg/ml, read-out: Growth-inhibitory ratio) of the same compound?
A: 44.4%

Q: What about the inhibition at 6.25 µg/mL ([3]; Homo sapiens, A-375, 65 h, A375, 6.25 µg/ml, read-out: Growth-inhibitory ratio) of the same compound?
A: 83.6%

Q: And the inhibition at 25 µg/mL ([3]; Homo sapiens, A-375, 65 h, A375, 25 µg/ml, read-out: Growth-inhibitory ratio)?
A: 105%

Q: And the inhibition at 100 µg/mL ([3]; Homo sapiens, A-375, 65 h, A375, 100 µg/ml, read-out: Growth-inhibitory ratio)?
A: 105%

Q: And the “Growth-inhibitory ratio (tumor volume)” value ([4]; 0.012 mg/kg intraperitoneally once a day for 10 days)?
A: 50.7%

Q: What about the “Growth-inhibitory ratio (tumor volume)” value ([4]; 0.021 mg/kg intraperitoneally once a day for 10 days) of the same compound?
A: 19.3%

Q: What about the “Growth-inhibitory ratio (tumor volume)” value ([4]; 0.037 mg/kg intraperitoneally once a day for 10 days) of the same compound?
A: 41.4%

Q: What about the “Growth-inhibitory ratio (tumor volume)” value ([4]; 0.064 mg/kg intraperitoneally once a day for 10 days) of the same compound?
A: 40.5%

Q: And the “Growth-inhibitory ratio (tumor volume)” value ([4]; 0.111 mg/kg intraperitoneally once a day for 10 days)?
A: 38.4%

Q: What about the “Growth-inhibitory ratio (tumor volume)” value ([4]; 0.192 mg/kg intraperitoneally once a day for 10 days) of the same compound?
A: 54.7%

Q: What about the “Growth-inhibitory ratio (tumor volume)” value ([4]; 0.333 mg/kg intraperitoneally once a day for 10 days) of the same compound?
A: 53.2%

Q: And the “Growth-inhibitory ratio (tumor volume)” value ([4]; 0.577 mg/kg intraperitoneally once a day for 10 days)?
A: 60.4%

Q: And the “Growth-inhibitory ratio (tumor volume)” value ([4]; 1.000 mg/kg intraperitoneally once a day for 10 days)?
A: 80%

Q: What about the mortality at 1 ppm ([5]; 1 ppm) of the same compound?
A: 100%

Q: And the mortality at 10 ppm ([5]; 10 ppm)?
A: 100%

Q: What about the mortality at 100 ppm ([5]; 100 ppm) of the same compound?
A: 100%

Q: And the LD50 (acute toxicity)?
A: 1.67 mg/kg
